According to ChEMBL document CHEMBL1126172, “Modeling of competitive phosphono amino acid NMDA receptor antagonists” (J Med Chem, 1992):

How the values were obtained:
Format in all cases: protein-complex assay
Glutamate NMDA receptor [1] = assay: Displacement of [3H]CPP or [3H]-CGS- 19755 from rat N-methyl-D-aspartate glutamate receptor
Glutamate NMDA receptor [2] = assay: Compound was evaluated for its ability to displace [3H]CPP ligand from N-methyl-D-aspartate glutamate receptor
Glutamate NMDA receptor [3] = assay: Compound was evaluated for its ability to displace [3H]CPP ligand from N-methyl-D-aspartate (NMDA) receptor
Glutamate NMDA receptor [4] = assay: Compound was evaluated for its ability to displace [3H]CPP or [3H]-CGS- 19755 ligand from N-methyl-D-aspartate glutamate receptor
Glutamate NMDA receptor [5] = assay: Compound was evaluated for its ability to displace [3H]-CGS- 19755 ligand from N-methyl-D-aspartate glutamate receptor
Glutamate NMDA receptor [6] = assay: Compound was evaluated for its ability to displace [3H]-CPP ligand from N-methyl-D-aspartate (NMDA) receptor
Glutamate NMDA receptor [7] = assay: (§1) Compound was evaluated for its ability to displace [3H]CPP or [3H]-CGS- 19755 ligand from N-methyl-D-aspartate (NMDA) receptor
Glutamate NMDA receptor [8] = assay: as §1; remark: listed apart in the source

Row | SMILES | Ki (Glutamate NMDA receptor [1]) | other results
1 | NC(CCCP(=O)(O)O)C(=O)O (configuration not stated) | < 1000 nM | Ki (Glutamate NMDA receptor [2]): 260 nM
2 | CC(C)([C@@H]1CCN[C@H](C(=O)O)C1)P(=O)(O)O | > 1000 nM | –
3 | NC(CCCCP(=O)(O)O)C(=O)O (configuration not stated) | – | Ki (Glutamate NMDA receptor [3]): 42 nM; Ki (Glutamate NMDA receptor [4]): > 1000 nM
4 | CC([C@@H]1CCN[C@H](C(=O)O)C1)P(=O)(O)O (some centres not stated) | > 1000 nM | –
5 | O=C(O)[C@H]1NCCC[C@H]1CCP(=O)(O)O | > 1000 nM | –
6 | C[C@@H]1CN[C@H](C(=O)O)C[C@@H]1CP(=O)(O)O | < 1000 nM | –
7 | C[C@@H]1[C@H](CP(=O)(O)O)CCN[C@@H]1C(=O)O | > 1000 nM | –
8 | C[C@H]1C[C@@H](CP(=O)(O)O)C[C@@H](C(=O)O)N1 | > 1000 nM | –
9 | NC(CCc1ccccc1CP(=O)(O)O)C(=O)O (configuration not stated) | > 1000 nM | –
10 | O=C(O)[C@@H]1C[C@H](CCCP(=O)(O)O)CCN1 | < 1000 nM | –
11 | O=C(O)[C@@H]1C[C@H](C/C=C/P(=O)(O)O)CCN1 | < 1000 nM | Ki (Glutamate NMDA receptor [5]): 72 nM
12 | O=C(O)[C@@H]1C[C@H](/C=C/CP(=O)(O)O)CCN1 | < 1000 nM | Ki (Glutamate NMDA receptor [5]): 14 nM
13 | NC(CCCCCP(=O)(O)O)C(=O)O (configuration not stated) [AP-7] | < 1000 nM | Ki (Glutamate NMDA receptor [5]): 912 nM
14 | C/C(=C\C(N)C(=O)O)CP(=O)(O)O (configuration not stated) [CGP-37849] | – | Ki (Glutamate NMDA receptor [6]): 35 nM; Ki (Glutamate NMDA receptor [7]): < 1000 nM
15 | O=C(O)[C@@H]1C[C@H](CP(=O)(O)O)CCN1 [SELFOTEL] | – | Ki (Glutamate NMDA receptor [8]): 130 nM; Ki (Glutamate NMDA receptor [7]): < 1000 nM
